Reference: BindingDB's records for PubMed 11356907 (Institut De Recherches Servier, 2001)

Assays:
[1] = biological target: T1, Alpha-1B adrenergic receptor (Homo sapiens, UniProt P35368)
T1 sequence (P35368 whole entry): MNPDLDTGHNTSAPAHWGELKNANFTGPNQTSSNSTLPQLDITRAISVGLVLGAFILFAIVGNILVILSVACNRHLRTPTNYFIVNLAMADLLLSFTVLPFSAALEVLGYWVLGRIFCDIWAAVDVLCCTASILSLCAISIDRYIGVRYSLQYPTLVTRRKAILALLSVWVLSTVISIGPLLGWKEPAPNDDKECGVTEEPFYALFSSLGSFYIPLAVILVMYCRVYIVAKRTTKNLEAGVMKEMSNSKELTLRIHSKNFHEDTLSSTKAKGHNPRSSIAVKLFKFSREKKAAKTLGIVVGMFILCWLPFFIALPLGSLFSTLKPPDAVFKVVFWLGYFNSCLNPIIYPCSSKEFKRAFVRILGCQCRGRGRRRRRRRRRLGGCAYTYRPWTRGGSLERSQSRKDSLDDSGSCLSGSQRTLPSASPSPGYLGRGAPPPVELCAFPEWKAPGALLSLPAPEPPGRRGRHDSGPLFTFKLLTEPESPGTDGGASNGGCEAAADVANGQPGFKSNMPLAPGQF

[2] = biological target: Sodium-dependent noradrenaline transporter (Homo sapiens, UniProt P23975)
Sodium-dependent noradrenaline transporter, sequence (P23975 whole entry): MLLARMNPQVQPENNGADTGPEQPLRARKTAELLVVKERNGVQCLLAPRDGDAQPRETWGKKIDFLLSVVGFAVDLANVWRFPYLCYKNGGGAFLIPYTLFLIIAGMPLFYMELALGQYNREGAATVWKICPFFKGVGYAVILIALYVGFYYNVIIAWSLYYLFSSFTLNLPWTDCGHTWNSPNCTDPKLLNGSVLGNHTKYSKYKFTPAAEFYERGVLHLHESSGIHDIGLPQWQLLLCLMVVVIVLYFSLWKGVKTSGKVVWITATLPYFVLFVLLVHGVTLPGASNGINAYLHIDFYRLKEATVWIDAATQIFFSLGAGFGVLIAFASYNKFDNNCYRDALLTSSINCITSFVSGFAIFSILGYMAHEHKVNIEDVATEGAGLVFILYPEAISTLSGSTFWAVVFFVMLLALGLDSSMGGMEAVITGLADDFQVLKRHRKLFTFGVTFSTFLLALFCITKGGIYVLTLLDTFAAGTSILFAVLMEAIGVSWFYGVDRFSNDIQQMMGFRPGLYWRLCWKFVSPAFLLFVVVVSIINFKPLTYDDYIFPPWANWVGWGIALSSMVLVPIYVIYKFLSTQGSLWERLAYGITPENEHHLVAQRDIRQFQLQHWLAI

[3] = biological target: T2, Amine oxidase [flavin-containing] A (Rattus norvegicus, UniProt P21396)
T2 sequence (P21396 whole entry): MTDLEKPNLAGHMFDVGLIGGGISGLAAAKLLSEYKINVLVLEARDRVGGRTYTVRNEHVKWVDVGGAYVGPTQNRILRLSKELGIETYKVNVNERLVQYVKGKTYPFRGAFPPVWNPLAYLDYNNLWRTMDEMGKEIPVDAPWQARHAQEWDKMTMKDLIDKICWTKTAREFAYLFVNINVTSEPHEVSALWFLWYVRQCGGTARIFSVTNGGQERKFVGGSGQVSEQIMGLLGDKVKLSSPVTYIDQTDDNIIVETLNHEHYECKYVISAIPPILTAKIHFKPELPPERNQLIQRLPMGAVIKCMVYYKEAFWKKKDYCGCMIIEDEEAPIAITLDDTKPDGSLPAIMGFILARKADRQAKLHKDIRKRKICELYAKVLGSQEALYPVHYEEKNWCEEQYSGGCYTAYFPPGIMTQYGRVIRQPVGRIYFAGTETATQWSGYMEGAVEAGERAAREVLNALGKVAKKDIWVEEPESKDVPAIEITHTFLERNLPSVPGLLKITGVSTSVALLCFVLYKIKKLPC

[4] = biological target: T3, Alpha-1A adrenergic receptor (Homo sapiens, UniProt P35348)
T3 sequence (P35348 whole entry): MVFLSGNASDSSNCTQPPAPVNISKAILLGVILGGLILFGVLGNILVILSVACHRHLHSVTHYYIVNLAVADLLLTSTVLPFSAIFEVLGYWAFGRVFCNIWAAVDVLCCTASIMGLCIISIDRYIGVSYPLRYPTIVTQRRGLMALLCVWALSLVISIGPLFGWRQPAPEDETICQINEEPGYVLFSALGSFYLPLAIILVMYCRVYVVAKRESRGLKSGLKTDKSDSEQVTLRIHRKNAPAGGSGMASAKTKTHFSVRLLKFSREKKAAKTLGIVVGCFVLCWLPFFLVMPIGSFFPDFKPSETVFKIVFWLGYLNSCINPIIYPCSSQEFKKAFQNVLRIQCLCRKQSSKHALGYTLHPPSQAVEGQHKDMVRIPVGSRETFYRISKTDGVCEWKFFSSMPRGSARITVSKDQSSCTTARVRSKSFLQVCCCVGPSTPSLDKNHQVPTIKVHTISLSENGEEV

[5] = biological target: Norepinephrine transporter (Rattus norvegicus, UniProt Q9JIA2)
[6] = biological target: T4, Alpha-1D adrenergic receptor (Homo sapiens, UniProt P25100)
T4 sequence (P25100 whole entry): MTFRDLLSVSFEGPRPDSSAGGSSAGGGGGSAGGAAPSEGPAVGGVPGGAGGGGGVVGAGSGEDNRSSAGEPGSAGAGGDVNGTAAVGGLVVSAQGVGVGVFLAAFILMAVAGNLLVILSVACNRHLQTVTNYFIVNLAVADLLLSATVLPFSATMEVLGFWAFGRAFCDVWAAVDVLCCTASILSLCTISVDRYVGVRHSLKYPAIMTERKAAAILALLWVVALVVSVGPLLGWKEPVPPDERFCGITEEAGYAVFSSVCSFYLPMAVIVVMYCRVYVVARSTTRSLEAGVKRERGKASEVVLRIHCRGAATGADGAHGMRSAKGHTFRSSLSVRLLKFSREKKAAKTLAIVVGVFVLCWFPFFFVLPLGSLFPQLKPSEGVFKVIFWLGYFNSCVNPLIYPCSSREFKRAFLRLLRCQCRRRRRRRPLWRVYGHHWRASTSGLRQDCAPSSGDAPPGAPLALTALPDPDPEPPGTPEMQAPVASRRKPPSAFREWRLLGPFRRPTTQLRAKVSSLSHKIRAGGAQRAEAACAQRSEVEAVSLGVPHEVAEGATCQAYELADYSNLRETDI

D(2) dopamine receptor [7] = biological target: D(2) dopamine receptor (Rattus norvegicus, UniProt P61169)
D(2) dopamine receptor (Rattus norvegicus, UniProt P61169), sequence (P61169 whole entry): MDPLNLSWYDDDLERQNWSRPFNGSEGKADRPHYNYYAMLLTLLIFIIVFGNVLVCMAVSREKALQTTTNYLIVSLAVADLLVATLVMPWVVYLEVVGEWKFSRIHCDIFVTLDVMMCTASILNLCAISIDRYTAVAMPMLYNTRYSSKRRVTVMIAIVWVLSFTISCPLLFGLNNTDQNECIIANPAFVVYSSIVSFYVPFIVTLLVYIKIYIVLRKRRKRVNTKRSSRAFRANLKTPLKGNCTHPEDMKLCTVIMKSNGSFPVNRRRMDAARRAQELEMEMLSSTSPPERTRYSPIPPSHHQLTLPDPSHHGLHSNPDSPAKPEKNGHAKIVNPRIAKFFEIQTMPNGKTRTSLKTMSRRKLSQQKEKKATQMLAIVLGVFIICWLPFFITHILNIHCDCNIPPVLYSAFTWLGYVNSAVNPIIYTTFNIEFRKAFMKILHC

[8] = biological target: Beta-2 adrenergic receptor (Homo sapiens, UniProt P07550)
Beta-2 adrenergic receptor, sequence (P07550 whole entry): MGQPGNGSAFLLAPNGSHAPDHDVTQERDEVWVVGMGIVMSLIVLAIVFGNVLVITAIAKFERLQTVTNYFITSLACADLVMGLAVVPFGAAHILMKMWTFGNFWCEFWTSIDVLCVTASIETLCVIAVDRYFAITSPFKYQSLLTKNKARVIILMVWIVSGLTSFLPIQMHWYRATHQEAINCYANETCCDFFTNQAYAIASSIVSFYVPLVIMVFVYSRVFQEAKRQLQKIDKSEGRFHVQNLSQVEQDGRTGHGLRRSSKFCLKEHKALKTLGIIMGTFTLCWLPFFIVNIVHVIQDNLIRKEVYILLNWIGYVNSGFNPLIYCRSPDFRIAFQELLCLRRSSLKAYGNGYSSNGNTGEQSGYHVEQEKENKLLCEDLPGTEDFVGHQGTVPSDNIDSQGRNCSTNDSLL

[9] = biological target: T5, Alpha-2C adrenergic receptor (Rattus norvegicus, UniProt P22086)
T5 sequence (P22086 whole entry): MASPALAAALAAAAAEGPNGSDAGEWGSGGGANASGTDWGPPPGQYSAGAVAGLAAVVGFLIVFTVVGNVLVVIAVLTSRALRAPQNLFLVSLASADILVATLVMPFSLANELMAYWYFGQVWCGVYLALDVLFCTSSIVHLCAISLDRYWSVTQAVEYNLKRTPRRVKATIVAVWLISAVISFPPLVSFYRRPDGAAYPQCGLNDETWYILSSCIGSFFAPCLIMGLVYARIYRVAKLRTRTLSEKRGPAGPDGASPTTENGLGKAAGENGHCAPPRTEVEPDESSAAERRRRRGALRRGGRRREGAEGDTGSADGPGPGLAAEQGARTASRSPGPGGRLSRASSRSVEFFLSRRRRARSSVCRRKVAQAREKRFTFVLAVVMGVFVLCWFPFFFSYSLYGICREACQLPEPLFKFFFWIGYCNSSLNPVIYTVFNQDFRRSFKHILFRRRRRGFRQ

D(2) dopamine receptor [10] = biological target: D(2) dopamine receptor (Homo sapiens, UniProt P14416)
D(2) dopamine receptor (Homo sapiens, UniProt P14416), sequence (P14416 whole entry): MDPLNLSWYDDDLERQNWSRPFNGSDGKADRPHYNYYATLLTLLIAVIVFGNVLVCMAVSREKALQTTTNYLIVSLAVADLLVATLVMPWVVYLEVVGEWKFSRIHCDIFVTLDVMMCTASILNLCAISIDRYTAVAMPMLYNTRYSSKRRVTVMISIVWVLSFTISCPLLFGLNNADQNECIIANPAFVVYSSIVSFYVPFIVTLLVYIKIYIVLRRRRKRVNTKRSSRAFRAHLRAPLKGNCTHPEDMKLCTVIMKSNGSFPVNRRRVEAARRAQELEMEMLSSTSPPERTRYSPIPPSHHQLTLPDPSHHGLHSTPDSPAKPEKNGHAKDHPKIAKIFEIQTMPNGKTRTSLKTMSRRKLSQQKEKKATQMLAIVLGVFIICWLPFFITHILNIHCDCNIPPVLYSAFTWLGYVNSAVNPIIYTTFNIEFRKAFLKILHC

[11] = biological target: T6, Amine oxidase [flavin-containing] B (Rattus norvegicus, UniProt P19643)
T6 sequence (P19643 whole entry): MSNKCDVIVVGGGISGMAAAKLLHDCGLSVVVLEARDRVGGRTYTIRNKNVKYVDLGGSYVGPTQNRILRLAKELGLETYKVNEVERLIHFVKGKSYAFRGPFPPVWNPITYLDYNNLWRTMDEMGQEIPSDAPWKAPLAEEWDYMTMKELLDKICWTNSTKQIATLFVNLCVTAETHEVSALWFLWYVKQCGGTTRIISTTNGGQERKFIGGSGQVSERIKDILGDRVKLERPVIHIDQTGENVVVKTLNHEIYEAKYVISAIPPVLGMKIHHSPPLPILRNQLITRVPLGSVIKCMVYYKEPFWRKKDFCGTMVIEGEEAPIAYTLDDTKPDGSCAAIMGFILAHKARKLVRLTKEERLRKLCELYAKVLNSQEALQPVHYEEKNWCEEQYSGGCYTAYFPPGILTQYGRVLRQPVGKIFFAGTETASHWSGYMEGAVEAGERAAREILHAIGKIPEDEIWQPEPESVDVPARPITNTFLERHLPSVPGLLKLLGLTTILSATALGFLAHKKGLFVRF

[12] = biological target: T7, Alpha-2A adrenergic receptor (Homo sapiens, UniProt P08913)
T7 sequence (P08913 whole entry): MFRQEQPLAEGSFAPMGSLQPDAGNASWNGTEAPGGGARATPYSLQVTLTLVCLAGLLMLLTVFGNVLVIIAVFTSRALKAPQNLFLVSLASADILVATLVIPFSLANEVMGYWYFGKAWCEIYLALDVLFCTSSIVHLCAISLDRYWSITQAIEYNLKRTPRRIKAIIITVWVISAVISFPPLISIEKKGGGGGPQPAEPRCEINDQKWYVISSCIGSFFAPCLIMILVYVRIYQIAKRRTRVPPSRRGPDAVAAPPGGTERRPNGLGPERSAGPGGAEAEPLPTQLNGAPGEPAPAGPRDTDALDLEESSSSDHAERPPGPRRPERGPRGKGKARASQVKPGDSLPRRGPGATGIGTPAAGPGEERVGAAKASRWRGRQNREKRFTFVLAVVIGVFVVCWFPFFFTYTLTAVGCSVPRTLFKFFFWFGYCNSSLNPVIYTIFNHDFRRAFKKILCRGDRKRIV

[13] = biological target: T8, Alpha-2C adrenergic receptor (Homo sapiens, UniProt P18825)
T8 sequence (P18825 whole entry): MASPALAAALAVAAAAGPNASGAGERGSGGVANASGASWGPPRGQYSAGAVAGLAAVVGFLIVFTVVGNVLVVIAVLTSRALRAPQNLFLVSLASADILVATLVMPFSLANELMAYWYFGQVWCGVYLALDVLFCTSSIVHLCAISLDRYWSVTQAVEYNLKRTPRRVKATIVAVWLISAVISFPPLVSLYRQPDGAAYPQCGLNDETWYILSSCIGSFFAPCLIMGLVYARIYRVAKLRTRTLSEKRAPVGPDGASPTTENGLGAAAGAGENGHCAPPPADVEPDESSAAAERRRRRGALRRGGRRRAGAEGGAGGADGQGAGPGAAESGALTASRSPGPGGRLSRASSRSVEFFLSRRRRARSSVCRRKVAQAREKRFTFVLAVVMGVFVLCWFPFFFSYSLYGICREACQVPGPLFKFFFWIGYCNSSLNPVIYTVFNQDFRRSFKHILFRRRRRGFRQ

Ki [1]: 6170 nM
Ki [2]: > 10000 nM
Ki [3]: > 10000 nM
Ki [4]: 813 nM
Ki [5]: > 10000 nM
Ki [6]: 219 nM
Ki (D(2) dopamine receptor [7]): 182 nM
Ki [8]: > 10000 nM
Ki [9]: 437 nM
Ki (D(2) dopamine receptor [10]): 132 nM
Ki [11]: > 10000 nM
Ki [12]: 89.1 nM
Ki [13]: 69.2 nM
Compound: c1cnc(N2CCN(Cc3ccc4c(c3)OCO4)CC2)nc1 [NSC_4850]
